{
  "source": "patent US20250127787A1",
  "about": "“METHODS FOR TREATING PERIPHERAL NEUROPATHY” (University of Pittsburgh - Of the Commonwealth System of …, priority 2021, published 2025)",
  "tested_on": "CD68",
  "test": "CD68 expression in PAC-CIPN rat spinal cord, Western immunoblotting",
  "format": "in vivo",
  "conditions": "8-AG 5 mg/kg/day in drinking water",
  "procedure": "Animals: This study employed female Harlan Sprague Dawley (HSD) rats (3-4 mo; Envigo, Indianapolis, IN) and were divided into the following groups: 1) Control, 2) Cyclophosphamide (CYP, 75 mg/kg i.p. in saline vehicle; administered on days 0, 3 and 6 until sacrifice on day 8); 4) Paclitaxel (2 mg/kg i.p., 2 mg/kg i.p. in saline from a stock solution of 50/50 CremophorEL/ethanol); administered on days 0, 2, 4 and 6 until sacrifice on day 8; 4) 8-aminoguanine (8-AG; 5 mg/kg/day in drinking water; beginning 2 weeks prior to either CYP or PAC and continuing until sacrifice (day 8)). The dose of 8-AG was based on the experiments described above. […] All tissues (spinal cord and hindpaw epidermis) were removed from isoflurane anesthetized rats and the tissue was used for various experimental approaches as described below. At the end of tissue removal, animals were sacrificed by thoracotomy. […]",
  "data": [
    {"smiles": "Nc1nc2[nH]c(N)nc2c(=O)[nH]1", "note": "[8-AG, 8-Aminoguanine]", "values": [
      {"measurement": "effect on PAC-induced increase in CD68 expression", "result": "significantly reduced"}
    ]}
  ]
}
